This test concerns the target human PDE10A2 (Homo sapiens (Human), UniProt Q9Y233). The test can be described thus: PDE10 fluorescence polarization (IMAP FP) inhibition assay. The class given is biochemical. Conditions: human PDE10A2 from transfected AD293 cells; FAM-labeled cAMP 50 nM; apparent inhibition constant; read-out: PDE10A Ki. In short, it runs like this: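 Cytoplasmic lysate of AD293 cells transiently expressing human PDE10A2 (enzyme level giving 20% conversion) incubated with 50 nM FAM-cAMP in pH 7.2 Tris/MgCl2 buffer, 30 min at room temperature. IMAP binding solution added, FP read after ≥1 h; 10-point 3-fold compound titrations fitted to a four-parameter equation.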
For orientation: Fluorescence polarisation rises when a labelled molecule tumbles more slowly, as on binding a larger partner.
human PDE10A2, sequence (Q9Y233 267-1055): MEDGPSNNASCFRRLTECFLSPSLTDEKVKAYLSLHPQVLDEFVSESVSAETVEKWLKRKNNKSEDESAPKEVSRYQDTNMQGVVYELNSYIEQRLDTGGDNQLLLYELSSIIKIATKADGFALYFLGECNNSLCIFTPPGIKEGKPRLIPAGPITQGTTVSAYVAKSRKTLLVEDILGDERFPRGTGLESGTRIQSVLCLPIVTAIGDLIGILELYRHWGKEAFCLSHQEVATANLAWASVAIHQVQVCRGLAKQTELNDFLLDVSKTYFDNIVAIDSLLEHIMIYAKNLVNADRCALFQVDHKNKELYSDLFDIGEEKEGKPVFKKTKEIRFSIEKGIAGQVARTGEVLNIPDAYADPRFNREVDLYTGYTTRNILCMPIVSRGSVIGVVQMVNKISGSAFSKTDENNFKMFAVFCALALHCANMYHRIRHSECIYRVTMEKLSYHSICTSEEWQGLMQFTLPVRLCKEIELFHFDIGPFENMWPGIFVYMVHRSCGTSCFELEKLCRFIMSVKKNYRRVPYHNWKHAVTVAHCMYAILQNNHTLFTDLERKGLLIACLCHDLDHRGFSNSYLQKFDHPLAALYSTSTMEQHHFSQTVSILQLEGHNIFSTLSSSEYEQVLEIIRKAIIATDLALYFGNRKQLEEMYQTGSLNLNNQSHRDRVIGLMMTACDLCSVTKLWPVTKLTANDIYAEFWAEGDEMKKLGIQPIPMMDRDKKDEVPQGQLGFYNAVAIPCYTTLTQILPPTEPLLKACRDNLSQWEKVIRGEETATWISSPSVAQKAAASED
For the compound `Cc1ccc([C@H]2C[C@@H]2COc2nc(C)ncc2[C@]2(F)CC[C@@H](O)CC2)nc1` [Example 210, (trans)-4-Fluoro-4-(2-methyl-4-(((1S,2S)-2-(5-methylpyridin-2-yl)cyclopropyl)methoxy)pyrimidin-5-yl)cyclohexanol], the Ki was 7.85 nM.

Turning to `COc1ccc([C@H]2C[C@@H]2COc2nc(C)ncc2C2(F)CCCCC2)nc1` [Example 211, 5-(1-fluorocyclohexyl)-4-(((1S,2S)-2-(5-methoxypyridin-2-yl)cyclopropyl)methoxy)-2-methylpyrimidine], the Ki was found to be 19.4 nM.

On to `Cc1ccc([C@H]2C[C@@H]2COc2nc(C)ncc2[C@H]2CC[C@@](C)(O)CC2)nc1` [Example 212, (cis)1-Methyl-4-(2-methyl-4-(((1S,2S)-2-(5-methylpyridin-2-yl)cyclopropyl)methoxy)pyrimidin-5-yl)cyclohexanol], for which the Ki came to 12.4 nM.

As to `Cc1ccc([C@H]2C[C@@H]2COc2nc(C)ncc2[C@H]2CC[C@](C)(O)CC2)nc1` [Example 213, (trans)1-Methyl-4-(2-methyl-4-(((1S,2S)-2-(5-methylpyridin-2-yl)cyclopropyl)methoxy)pyrimidin-5-yl)cyclohexanol], the Ki came to 6.86 nM.

`CC[C@]1(O)CC[C@@H](c2cnc(C)nc2OC[C@H]2C[C@@H]2c2ccc(C)cn2)CC1` [Example 214, (cis)1-Ethyl-4-(2-methyl-4-(((1S,2S)-2-(5-methylpyridin-2-yl)cyclopropyl)methoxy)pyrimidin-5-yl)cyclohexanol]: the Ki came to 19.4 nM.

As for `CC[C@]1(O)CC[C@H](c2cnc(C)nc2OC[C@H]2C[C@@H]2c2ccc(C)cn2)CC1` [Example 215, (trans)1-Ethyl-4-(2-methyl-4-(((1S,2S)-2-(5-methylpyridin-2-1)cyclopropyl)methoxy)pyrimidin-5-yl)cyclohexanol], the Ki amounted to 15.3 nM.

Regarding `CCOC(=O)[C@H]1CC[C@@H](c2cnc(C)nc2OC[C@H]2C[C@@H]2c2ccc(OC)cn2)CC1` [Example 216, cis-Ethyl4-(4-(((1S,2S)-2-(5-methoxypyridin-2-yl)cyclopropyl)methoxy)-2-methylpyrimidin-5-yl)cyclohexanecarboxylate], the Ki was found to be 7.9 nM.

As to `COc1ccc([C@H]2C[C@@H]2COc2nc(C)ncc2[C@H]2CC[C@@H](C(=O)O)CC2)nc1` [Example 217, cis-4-(4-(((1S,2S)-2-(5-Methoxypyridin-2-yl)cyclopropyl)methoxy)-2-methylpyrimidin-5-yl)cyclohexanecarboxylic acid], the Ki turned out to be 5.29 nM.

Turning to `Cc1ccc([C@H]2C[C@@H]2COc2nc(C)ncc2[C@H]2CC[C@@H](C(C)(C)O)CC2)nc1` [Example 221, (cis)2-(4-(2-methyl-4-(((1S,2S)-2-(5-methylpyridin-2-yl)cyclopropyl)methoxy)pyrimidin-5-yl)cyclohexyl)propan-2-ol], the Ki is 12.6 nM.

For `COc1ccc([C@H]2C[C@@H]2COc2nc(C)ncc2-c2ccc(-c3nn[nH]n3)cc2)nc1` [Example 222, 5-(4-(1H-tetrazol-5-yl)phenyl)-4-(((1S,2S)-2-(5-methoxypyridin-2-yl)cyclopropyl)methoxy)-2-methylpyrimidine], the Ki came out at 0.1 nM.

Regarding `COc1ccc([C@H]2C[C@@H]2COc2nc(C)ncc2-c2ccc(-c3nnn(C)n3)cc2)nc1` [Example 223, 4-(((1S,2S)-2-(5-methoxypyridin-2-yl)cyclopropyl)methoxy)-2-methyl-5-(4-(2-methyl-2H-tetrazol-5-yl)phenyl)pyrimidine], the Ki is 2.02 nM.

As to `COc1ccc([C@H]2C[C@@H]2COc2nc(C)ncc2-c2ccc(-c3nnnn3C)cc2)nc1` [Example 224, 4-(((1S,2S)-2-(5-methoxypyridin-2-yl)cyclopropyl)methoxy)-2-methyl-5-(4-(1-methyl-1H-tetrazol-5-yl)phenyl)pyrimidine], the Ki came out at 1.08 nM.

Take `CCn1nnc(-c2ccc(-c3cnc(C)nc3OC[C@H]3C[C@@H]3c3ccc(OC)cn3)cc2)n1` [Example 225, 5-(4-(2-ethyl-2H-tetrazol-5-yl)phenyl)-4-(((1S,2S)-2-(5-methoxypyridin-2-yl)cyclopropyl)methoxy)-2-methylpyrimidine]: the Ki amounted to 1.42 nM.

For `CCn1nnnc1-c1ccc(-c2cnc(C)nc2OC[C@H]2C[C@@H]2c2ccc(OC)cn2)cc1` [Example 226, 5-(4-(1-ethyl-1H-tetrazol-5-yl)phenyl)-4-(((1S,2S)-2-(5-methoxypyridin-2-yl)cyclopropyl)methoxy)-2-methylpyrimidine], the Ki came to 0.77 nM.

As to `COc1ccc([C@H]2C[C@@H]2COc2nc(C)ncc2-c2ccc(-c3nnn(C(F)F)n3)cc2)nc1` [Example 227, 5-(4-(2-(difluoromethyl)-2H-tetrazol-5-yl)phenyl)-4-(((1S,2S)-2-(5-methoxypyridin-2-yl)cyclopropyl)methoxy)-2-methylpyrimidine], the Ki stood at 3.3 nM.

`COc1ccc([C@H]2C[C@@H]2COc2nc(C)ncc2-c2ccc(-c3nnnn3C(F)F)cc2)nc1` [Example 228, 5-(4-(1-(difluoromethyl)-1H-tetrazol-5-yl)phenyl)-4-(((1S,2S)-2-(5-methoxypyridin-2-yl)cyclopropyl)methoxy)-2-methylpyrimidine]: the Ki was determined as 2.06 nM.

As for `COc1ccc([C@H]2C[C@@H]2COc2nc(C)ncc2-c2ccc(-c3nn[nH]n3)nc2)nc1` [Example 229, 5-(6-(2H-tetrazol-5-yl)pyridin-3-yl)-4-(((1S,2S)-2-(5-methoxypyridin-2-yl)cyclopropyl)methoxy)-2-methylpyrimidine], the Ki amounted to 0.13 nM.

In the case of `COc1ccc([C@H]2C[C@@H]2COc2nc(C)ncc2-c2ccc(-c3nnn(C)n3)nc2)nc1` [Example 230, 4-(((1S,2S)-2-(5-methoxypyridin-2-yl)cyclopropyl)methoxy)-2-methyl-5-(6-(2-methyl-2H-tetrazol-5-yl)pyridin-3-yl)pyrimidine], the Ki was 1.64 nM.

For the compound `COc1ccc([C@H]2C[C@@H]2COc2nc(C)ncc2-c2ccc(-c3nnnn3C)nc2)nc1` [Example 231, 4-(((1S,2S)-2-(5-methoxypyridin-2-yl)cyclopropyl)methoxy)-2-methyl-5-(6-(1-methyl-1H-tetrazol-5-yl)pyridin-3-yl)pyrimidine], the Ki was 1.78 nM.

Turning to `CCn1nnc(-c2ccc(-c3cnc(C)nc3OC[C@H]3C[C@@H]3c3ccc(OC)cn3)cn2)n1` [Example 232, 5-(6-(2-ethyl-2H-tetrazol-5-yl)pyridin-3-yl)-4-(((1S,2S)-2-(5-methoxypyridin-2-yl)cyclopropyl)methoxy)-2-methylpyrimidine], the Ki stood at 0.77 nM.

Take `CCn1nnnc1-c1ccc(-c2cnc(C)nc2OC[C@H]2C[C@@H]2c2ccc(OC)cn2)cn1` [Example 233, 5-(6-(1-ethyl-1H-tetrazol-5-yl)pyridin-3-yl)-4-(((1S,2S)-2-(5-methoxypyridin-2-yl)cyclopropyl)methoxy)-2-methylpyrimidine]: the Ki was 1.16 nM.

Take `COc1ccc([C@H]2C[C@@H]2COc2nc(C)ncc2-c2nn[nH]n2)nc1` [Example 234, 4-(((1S,2S)-2-(5-methoxypyridin-2-yl)cyclopropyl)methoxy)-2-methyl-5-(2H-tetrazol-5-yl)pyrimidine]: the Ki was 9.43 nM.

Take `COc1ccc([C@H]2C[C@@H]2COc2nc(C)ncc2-c2nnn(C)n2)nc1` [Example 235, 4-(((1S,2S)-2-(5-methoxypyridin-2-yl)cyclopropyl)methoxy)-2-methyl-5-(2-methyl-2H-tetrazol-5-yl)pyrimidine]: the Ki worked out at 21.5 nM.

On to `CCn1nnc(-c2cnc(C)nc2OC[C@H]2C[C@@H]2c2ccc(OC)cn2)n1` [Example 236, 5-(2-ethyl-2H-tetrazol-5-yl)-4-(((1S,2S)-2-(5-methoxypyridin-2-yl)cyclopropyl)methoxy)-2-methylpyrimidine], for which the Ki came out at 19.4 nM.

`COc1ccc([C@H]2C[C@@H]2COc2nc(C)ncc2-c2nnn(C(F)F)n2)nc1` [Example 237, 5-(2-(difluoromethyl)-2H-tetrazol-5-yl)-4-(((1S,2S)-2-(5-methoxypyridin-2-yl)cyclopropyl)methoxy)-2-methylpyrimidine]: the Ki stood at 32.9 nM.

On to `COc1ccc([C@H]2C[C@@H]2COc2nc(C)ncc2-c2cc(=O)[nH]n2C)nc1` [Example 238, 5-(4-(((1S,2S)-2-(5-methoxypyridin-2-yl)cyclopropyl)methoxy)-2-methylpyrimidin-5-yl)-1-methyl-1,2-dihydropyrazol-3-one], for which the Ki worked out at 22.9 nM.

In the case of `COc1ccc([C@H]2C[C@@H]2COc2nc(C)ncc2-c2cc(=O)n(C)n2C)nc1` [Example 239, 5-(4-(((1S,2S)-2-(5-methoxypyridin-2-yl)cyclopropyl)methoxy)-2-methylpyrimidin-5-yl)-1,2-dimethyl-1,2-dihydropyrazol-3-one], the Ki stood at 7.7 nM.

Take `COc1ccc([C@H]2C[C@@H]2COc2nc(C)ncc2-c2cc(OC)nn2C)nc1` [Example 240, 5-(3-methoxy-1-methyl-1H-pyrazol-5-yl)-4-(((1S,2S)-2-(5-methoxypyridin-2-yl)cyclopropyl)methoxy)-2-methylpyrimidine]: the Ki came to 29.9 nM.

As to `COc1ccc([C@H]2C[C@@H]2COc2nc(C)ncc2-c2cc(=O)[nH][nH]2)nc1` [Example 241, 5-(4-(((1S,2S)-2-(5-methoxypyridin-2-yl)cyclopropyl)methoxy)-2-methylpyrimidin-5-yl)-1,2-dihydropyrazol-3-one], the Ki stood at 0.9 nM.

Take `COc1ccc([C@H]2C[C@@H]2COc2nc(C)ncc2-c2c[nH]oc2=O)nc1` [Example 242, 4-(4-(((1S,2S)-2-(5-methoxypyridin-2-yl)cyclopropyl)methoxy)-2-methylpyrimidin-5-yl)isoxazol-5(2H)-one]: the Ki was 2.36 nM.

As for `COc1ccc([C@H]2C[C@@H]2COc2nc(C)ncc2-c2cn(C)oc2=O)nc1` [Example 243, 4-(4-(((1S,2S)-2-(5-methoxypyridin-2-yl)cyclopropyl)methoxy)-2-methylpyrimidin-5-yl)-2-methylisoxazol-5(2H)-one], the Ki is 6.59 nM.
